In ChEMBL document CHEMBL3885881, “DrugMatrix”:

Species: Rattus norvegicus
Assay: DrugMatrix - Regimen: Daily Repeat
Format: toxicity, organism-based, Sprague-Dawley
Design: regimen Daily Repeat, gender Male, age 6-8 weeks
Settings: in vivo, po, route oral GAVAGE, vehicle 100 % WATER; for ABSOLUTE BASOPHIL / ABSOLUTE EOSINOPHIL / ABSOLUTE LYMPHOCYTE / ABSOLUTE MONOCYTE / ABSOLUTE SEGMENTED NEUTROPHIL / BASOPHIL / EOSINOPHIL / ERYTHROCYTE COUNT / HEMATOCRIT / HEMOGLOBIN / LEUKOCYTE COUNT / LYMPHOCYTE / MEAN CORPUSCULAR HEMOGLOBIN / MEAN CORPUSCULAR HEMOGLOBIN CONCENTRATION / MEAN CORPUSCULAR VOLUME / MONOCYTE / NEUTROPHIL / NUCLEATED RED BLOOD CELLS / PLATELET COUNT: tissue Blood; for ALANINE AMINOTRANSFERASE / ALBUMIN / ALKALINE PHOSPHATASE / ASPARTATE AMINOTRANSFERASE / BLOOD UREA NITROGEN / CARBON DIOXIDE / CHLORIDE / CHOLESTEROL / CREATINE PHOSPHOKINASE / CREATININE / GLUCOSE / LACTATE DEHYDROGENASE / LIPASE / PHOSPHORUS / POTASSIUM / SODIUM / TOTAL BILIRUBIN / TOTAL PROTEIN / URIC ACID: tissue Plasma
[1] = 1 mg/kg, 120 h, dose level Low, time 5 day
[2] = 10 mg/kg, 72 h, dose level High, time 3 day
[3] = 10 mg/kg, 120 h, dose level High, time 5 day

## CC[C@H](C)[C@H]1O[C@]2(C=C[C@@H]1C)C[C@@H]1C[C@@H](C/C=C(\C)[C@@H](O[C@H]3C[C@H](OC)[C@@H](O[C@H]4C[C@H](OC)[C@@H](O)[C@H](C)O4)[C@H](C)O3)[C@@H](C)/C=C/C=C3\CO[C@@H]4[C@H](O)C(C)=C[C@@H](C(=O)O1)[C@]34O)O2.CO[C@H]1C[C@H](O[C@H]2[C@H](C)O[C@@H](O[C@@H]3/C(C)=C/C[C@@H]4C[C@@H](C[C@]5(C=C[C@H](C)[C@@H](C(C)C)O5)O4)OC(=O)[C@@H]4C=C(C)[C@@H](O)[C@H]5OC/C(=C\C=C\[C@@H]3C)[C@]54O)C[C@@H]2OC)O[C@@H](C)[C@@H]1O [ABAMECTIN]
[1]
  ABSOLUTE BASOPHIL: 0 CELLS/uL
  ABSOLUTE EOSINOPHIL: 144.67 CELLS/uL
  ABSOLUTE LYMPHOCYTE: 15431.33 CELLS/uL
  ABSOLUTE MONOCYTE: 370 CELLS/uL
  ABSOLUTE SEGMENTED NEUTROPHIL: 1387.33 CELLS/uL
  BASOPHIL: 0%
  EOSINOPHIL: 0.67%
  ERYTHROCYTE COUNT: 5.65 x10E6/uL
  HEMATOCRIT: 33.97%
  HEMOGLOBIN: 13.77 G/DL
  LEUKOCYTE COUNT: 17.33 x10E3/uL
  LYMPHOCYTE: 89.67%
  MEAN CORPUSCULAR HEMOGLOBIN: 24.4 pg
  MEAN CORPUSCULAR HEMOGLOBIN CONCENTRATION: 40.53 G/DL
  MEAN CORPUSCULAR VOLUME: 60.13 fL
  MONOCYTE: 2%
  NEUTROPHIL: 7.67%
  NUCLEATED RED BLOOD CELLS: 0 /100WBC
  PLATELET COUNT: 1317.33 x10E3/uL
  ALANINE AMINOTRANSFERASE: 48.67 u/L
  ALBUMIN: 4.2 G/DL
  ALKALINE PHOSPHATASE: 323.67 u/L
  ASPARTATE AMINOTRANSFERASE: 72 u/L
  BLOOD UREA NITROGEN: 14.67 mg/dL
  CARBON DIOXIDE: 25 mmol/L
  CHLORIDE: 102 MEQ/L
  CHOLESTEROL: 70.33 mg/dL
  CREATINE PHOSPHOKINASE: 216.33 u/L
  CREATININE: 0.13 mg/dL
  GLUCOSE: 162.33 mg/dL
  LACTATE DEHYDROGENASE: 87.67 u/L
  LIPASE: 9 u/L
  PHOSPHORUS: 11.33 mg/dL
  POTASSIUM: 6.2 MEQ/L
  SODIUM: 144.03 MEQ/L
  TOTAL BILIRUBIN: 0.17 mg/dL
  TOTAL PROTEIN: 5.87 G/DL
  URIC ACID: 1.5 mg/dL
[2]
  ABSOLUTE BASOPHIL: 0 CELLS/uL
  ABSOLUTE EOSINOPHIL: 36.33 CELLS/uL
  ABSOLUTE LYMPHOCYTE: 12016 CELLS/uL
  ABSOLUTE MONOCYTE: 120 CELLS/uL
  ABSOLUTE SEGMENTED NEUTROPHIL: 861 CELLS/uL
  BASOPHIL: 0%
  EOSINOPHIL: 0.33%
  ERYTHROCYTE COUNT: 5.75 x10E6/uL
  HEMATOCRIT: 35.6%
  HEMOGLOBIN: 13.9 G/DL
  LEUKOCYTE COUNT: 13.03 x10E3/uL
  LYMPHOCYTE: 92.33%
  MEAN CORPUSCULAR HEMOGLOBIN: 24.2 pg
  MEAN CORPUSCULAR HEMOGLOBIN CONCENTRATION: 39.07 G/DL
  MEAN CORPUSCULAR VOLUME: 61.93 fL
  MONOCYTE: 1%
  NEUTROPHIL: 6.33%
  NUCLEATED RED BLOOD CELLS: 0 /100WBC
  PLATELET COUNT: 1234 x10E3/uL
  ALANINE AMINOTRANSFERASE: 46.33 u/L
  ALBUMIN: 4.23 G/DL
  ALKALINE PHOSPHATASE: 426 u/L
  ASPARTATE AMINOTRANSFERASE: 78.33 u/L
  BLOOD UREA NITROGEN: 14.67 mg/dL
  CARBON DIOXIDE: 25 mmol/L
  CHLORIDE: 99.67 MEQ/L
  CHOLESTEROL: 64 mg/dL
  CREATINE PHOSPHOKINASE: 208.33 u/L
  CREATININE: 0.18 mg/dL
  GLUCOSE: 136.33 mg/dL
  LACTATE DEHYDROGENASE: 150.33 u/L
  LIPASE: 11 u/L
  PHOSPHORUS: 11.37 mg/dL
  POTASSIUM: 6.65 MEQ/L
  SODIUM: 143.17 MEQ/L
  TOTAL BILIRUBIN: 0.17 mg/dL
  TOTAL PROTEIN: 5.87 G/DL
  URIC ACID: 1.33 mg/dL
[3]
  ABSOLUTE BASOPHIL: 0 CELLS/uL
  ABSOLUTE EOSINOPHIL: 0 CELLS/uL
  ABSOLUTE LYMPHOCYTE: 9787 CELLS/uL
  ABSOLUTE MONOCYTE: 273.67 CELLS/uL
  ABSOLUTE SEGMENTED NEUTROPHIL: 1239.33 CELLS/uL
  BASOPHIL: 0%
  EOSINOPHIL: 0%
  ERYTHROCYTE COUNT: 6.35 x10E6/uL
  HEMATOCRIT: 39.13%
  HEMOGLOBIN: 15.47 G/DL
  LEUKOCYTE COUNT: 11.3 x10E3/uL
  LYMPHOCYTE: 85.33%
  MEAN CORPUSCULAR HEMOGLOBIN: 24.43 pg
  MEAN CORPUSCULAR HEMOGLOBIN CONCENTRATION: 39.53 G/DL
  MEAN CORPUSCULAR VOLUME: 61.9 fL
  MONOCYTE: 2.67%
  NEUTROPHIL: 12%
  NUCLEATED RED BLOOD CELLS: 0.33 /100WBC
  PLATELET COUNT: 1492.67 x10E3/uL
  ALANINE AMINOTRANSFERASE: 38 u/L
  ALBUMIN: 4.63 G/DL
  ALKALINE PHOSPHATASE: 309 u/L
  ASPARTATE AMINOTRANSFERASE: 72.33 u/L
  BLOOD UREA NITROGEN: 17 mg/dL
  CARBON DIOXIDE: 27.33 mmol/L
  CHLORIDE: 98.67 MEQ/L
  CHOLESTEROL: 79.33 mg/dL
  CREATINE PHOSPHOKINASE: 356.67 u/L
  CREATININE: 0.14 mg/dL
  GLUCOSE: 153.33 mg/dL
  LACTATE DEHYDROGENASE: 446.33 u/L
  LIPASE: 8.67 u/L
  PHOSPHORUS: 10.47 mg/dL
  POTASSIUM: 6.1 MEQ/L
  SODIUM: 143.9 MEQ/L
  TOTAL BILIRUBIN: 0.13 mg/dL
  TOTAL PROTEIN: 6.7 G/DL
  URIC ACID: 1.5 mg/dL
